In paper PMC3314994, “Inhibitors of human histone deacetylase with potent activity against the African trypanosome Trypanosoma brucei” (Bioorganic & Medicinal Chemistry Letters, 2012):

Columns and labels:
Trypanosoma brucei (BSF) = test: Growth inhibition of cultured bloodstream form T. brucei; assay type: cell-based, Trypanosoma brucei (strain 427); details: Trypanosoma brucei, cultured bloodstream form, strain 427, triplicate; for IC50: read-out: Trypanosoma brucei (BSF) IC50 ± SD; for IC90: read-out: Trypanosoma brucei (BSF) IC90 ± SD
Protocol: Treatment of parasites with micromolar levels of these inhibitors could result in cell death within 4 h (Fig. 1).
[30] Growth inhibitory properties against cultured bloodstream form T. brucei were determined as described previously.[29] Experiments were performed in triplicate and data are presented as ±SD.

HDAC (FDL_HELA) = test: Histone deacetylase activity in HeLa cell lysates (fluorescent assay kit); assay type: biochemical, Human; details: lysed HeLa cells; read-out: HDAC (FDL_HELA) IC50 ± SD
Protocol: (§1) The compounds from the different structural subclasses were all active as HDAC inhibitors, measured in an assay of enzymes in HeLa cell lysates.[23,24] HeLa cells express multiple HDACs, including HDAC 1, 2, 3, 4, and 8.[25–27] […] To further characterise the compounds with respect to HDAC selectivity, we determined their inhibitory properties against recombinant expressed human HDACs (rhHDAC 1–4, 6–9).[28]
[24] Histone deacetylase activity was determined in lysed Human cervix epithelial cancer HeLa cells. To determine the IC50 of test compound a commercially available fluorescent assay kit was used employing an acetylated enzyme substrate.[23]

rhHDAC 2 = rhHDAC 2 (Homo sapiens, UniProt Q92769); test: Inhibition of recombinant human HDAC isoforms; assay type: biochemical; details: mean ± SD, triplicate per plate, min two plates; read-out: ED50 rhHDAC 2
rhHDAC 2, sequence (Q92769 whole entry, canonical isoform): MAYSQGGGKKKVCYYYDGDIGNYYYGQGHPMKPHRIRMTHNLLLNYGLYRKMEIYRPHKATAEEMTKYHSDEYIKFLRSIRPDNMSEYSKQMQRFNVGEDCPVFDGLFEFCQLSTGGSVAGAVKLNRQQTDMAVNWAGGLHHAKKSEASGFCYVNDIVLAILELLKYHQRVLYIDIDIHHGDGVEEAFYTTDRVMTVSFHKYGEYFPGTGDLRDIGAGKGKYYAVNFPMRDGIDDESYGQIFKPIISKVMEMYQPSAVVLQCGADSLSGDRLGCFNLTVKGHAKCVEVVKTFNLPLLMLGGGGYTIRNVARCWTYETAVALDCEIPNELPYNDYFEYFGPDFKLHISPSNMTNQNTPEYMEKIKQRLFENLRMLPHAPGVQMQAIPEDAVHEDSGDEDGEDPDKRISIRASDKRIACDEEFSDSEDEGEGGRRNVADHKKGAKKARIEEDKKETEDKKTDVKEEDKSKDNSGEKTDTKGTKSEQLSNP
Text: as §1

rhHDAC 3 = rhHDAC 3 (Homo sapiens, UniProt O15379); test: Inhibition of recombinant human HDAC isoforms; assay type: biochemical; details: mean ± SD, triplicate per plate, min two plates; read-out: ED50 rhHDAC 3
rhHDAC 3, sequence (O15379 whole entry, canonical isoform): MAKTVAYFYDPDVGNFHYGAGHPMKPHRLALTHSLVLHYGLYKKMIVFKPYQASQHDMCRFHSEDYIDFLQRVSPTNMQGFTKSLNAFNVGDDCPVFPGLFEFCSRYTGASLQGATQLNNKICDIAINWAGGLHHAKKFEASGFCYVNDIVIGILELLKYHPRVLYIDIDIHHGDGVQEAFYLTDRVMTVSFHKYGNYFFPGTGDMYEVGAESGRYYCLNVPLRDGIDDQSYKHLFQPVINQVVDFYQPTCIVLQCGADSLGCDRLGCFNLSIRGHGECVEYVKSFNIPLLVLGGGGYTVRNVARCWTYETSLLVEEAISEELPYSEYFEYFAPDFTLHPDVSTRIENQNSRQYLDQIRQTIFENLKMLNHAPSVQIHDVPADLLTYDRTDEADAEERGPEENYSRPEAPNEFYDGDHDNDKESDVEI
rhHDAC 3, sequence (Q9Y618 395-489 partner limits assumed): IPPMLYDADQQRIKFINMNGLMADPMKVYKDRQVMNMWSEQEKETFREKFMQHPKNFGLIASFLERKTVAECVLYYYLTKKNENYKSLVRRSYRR
Text: as §1

rhHDAC 6 = molecular target: T1, rhHDAC 6 (Homo sapiens, UniProt Q9UBN7); test: Inhibition of recombinant human HDAC isoforms; assay type: biochemical; details: mean ± SD, triplicate per plate, min two plates; read-out: ED50 rhHDAC 6
T1 sequence (Q9UBN7 1-1215): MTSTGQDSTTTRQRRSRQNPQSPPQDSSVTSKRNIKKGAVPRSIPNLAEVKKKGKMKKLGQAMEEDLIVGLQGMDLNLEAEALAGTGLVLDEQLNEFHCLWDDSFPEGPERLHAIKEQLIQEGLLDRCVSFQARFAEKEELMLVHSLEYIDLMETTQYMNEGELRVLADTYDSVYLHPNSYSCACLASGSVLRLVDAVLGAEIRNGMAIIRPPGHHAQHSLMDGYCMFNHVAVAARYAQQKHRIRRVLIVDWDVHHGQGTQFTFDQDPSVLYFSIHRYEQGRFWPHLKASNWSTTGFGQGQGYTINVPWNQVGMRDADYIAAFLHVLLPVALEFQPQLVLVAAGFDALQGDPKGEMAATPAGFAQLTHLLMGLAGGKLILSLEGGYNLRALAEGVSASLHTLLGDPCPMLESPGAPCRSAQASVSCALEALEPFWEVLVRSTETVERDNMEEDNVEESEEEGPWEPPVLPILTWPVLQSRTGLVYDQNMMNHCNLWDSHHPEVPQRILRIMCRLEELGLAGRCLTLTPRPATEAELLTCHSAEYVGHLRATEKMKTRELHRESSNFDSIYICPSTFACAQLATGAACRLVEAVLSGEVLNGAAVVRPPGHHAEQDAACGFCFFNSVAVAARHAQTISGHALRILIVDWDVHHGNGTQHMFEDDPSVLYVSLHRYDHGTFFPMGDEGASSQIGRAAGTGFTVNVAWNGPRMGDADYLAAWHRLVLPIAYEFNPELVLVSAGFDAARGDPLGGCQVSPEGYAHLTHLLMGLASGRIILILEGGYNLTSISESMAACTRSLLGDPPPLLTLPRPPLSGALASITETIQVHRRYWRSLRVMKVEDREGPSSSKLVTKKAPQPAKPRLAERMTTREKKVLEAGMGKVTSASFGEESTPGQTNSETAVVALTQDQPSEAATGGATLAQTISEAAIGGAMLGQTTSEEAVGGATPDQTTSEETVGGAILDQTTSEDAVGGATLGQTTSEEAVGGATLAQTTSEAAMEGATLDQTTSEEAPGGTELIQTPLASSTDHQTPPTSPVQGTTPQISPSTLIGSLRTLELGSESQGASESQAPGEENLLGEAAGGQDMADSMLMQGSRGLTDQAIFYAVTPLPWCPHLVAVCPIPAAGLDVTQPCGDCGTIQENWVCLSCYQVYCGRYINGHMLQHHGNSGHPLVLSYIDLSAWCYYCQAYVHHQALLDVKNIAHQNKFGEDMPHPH
Text: as §1

rhHDAC 7 = molecular target: T2, rhHDAC 7 (Homo sapiens, UniProt Q8WUI4); test: Inhibition of recombinant human HDAC isoforms; assay type: biochemical; details: mean ± SD, triplicate per plate, min two plates; read-out: ED50 rhHDAC 7
T2 sequence (Q8WUI4 1-952): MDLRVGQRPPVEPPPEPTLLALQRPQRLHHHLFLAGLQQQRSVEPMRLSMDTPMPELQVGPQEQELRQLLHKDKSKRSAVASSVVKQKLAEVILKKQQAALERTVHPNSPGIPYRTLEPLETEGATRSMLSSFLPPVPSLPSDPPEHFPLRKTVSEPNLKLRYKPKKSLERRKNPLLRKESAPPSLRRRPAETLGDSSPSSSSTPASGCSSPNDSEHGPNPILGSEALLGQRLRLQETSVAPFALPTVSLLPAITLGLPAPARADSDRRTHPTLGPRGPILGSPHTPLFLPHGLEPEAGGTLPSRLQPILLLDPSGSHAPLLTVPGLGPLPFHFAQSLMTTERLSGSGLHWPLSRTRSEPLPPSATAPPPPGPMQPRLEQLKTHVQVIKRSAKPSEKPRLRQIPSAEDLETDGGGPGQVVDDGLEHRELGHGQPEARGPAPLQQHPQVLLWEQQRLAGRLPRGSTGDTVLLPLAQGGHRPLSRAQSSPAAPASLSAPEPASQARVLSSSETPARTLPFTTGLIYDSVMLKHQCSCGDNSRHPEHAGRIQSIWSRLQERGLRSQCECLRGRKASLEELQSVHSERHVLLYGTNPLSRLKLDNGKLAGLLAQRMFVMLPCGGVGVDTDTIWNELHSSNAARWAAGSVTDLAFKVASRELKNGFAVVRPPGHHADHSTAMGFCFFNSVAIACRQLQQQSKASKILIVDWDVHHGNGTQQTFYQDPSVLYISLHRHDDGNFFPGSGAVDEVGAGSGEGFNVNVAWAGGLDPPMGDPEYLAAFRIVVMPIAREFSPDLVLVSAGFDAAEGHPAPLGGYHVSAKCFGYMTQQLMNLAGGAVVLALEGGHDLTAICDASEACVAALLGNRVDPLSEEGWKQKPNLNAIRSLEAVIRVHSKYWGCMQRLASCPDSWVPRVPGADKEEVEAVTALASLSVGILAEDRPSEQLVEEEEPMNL
Text: as §1

rhHDAC 8 = molecular target: T3, rhHDAC 8 (Homo sapiens, UniProt Q9BY41); test: Inhibition of recombinant human HDAC isoforms; assay type: biochemical; details: mean ± SD, triplicate per plate, min two plates; read-out: ED50 rhHDAC 8
T3 sequence (Q9BY41 1-377): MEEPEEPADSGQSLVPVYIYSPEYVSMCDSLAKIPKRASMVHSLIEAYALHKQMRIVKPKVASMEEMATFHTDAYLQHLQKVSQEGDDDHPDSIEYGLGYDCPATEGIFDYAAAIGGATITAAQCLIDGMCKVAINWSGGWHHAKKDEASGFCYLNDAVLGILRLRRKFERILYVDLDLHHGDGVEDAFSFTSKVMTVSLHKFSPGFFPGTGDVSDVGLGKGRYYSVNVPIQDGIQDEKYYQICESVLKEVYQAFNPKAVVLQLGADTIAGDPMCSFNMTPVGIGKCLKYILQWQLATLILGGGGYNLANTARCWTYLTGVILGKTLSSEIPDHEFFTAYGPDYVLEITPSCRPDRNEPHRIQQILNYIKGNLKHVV
Text: as §1

rhHDAC 9 = rhHDAC 9 (Homo sapiens, UniProt Q9UKV0); test: Inhibition of recombinant human HDAC isoforms; assay type: biochemical; details: mean ± SD, triplicate per plate, min two plates; read-out: ED50 rhHDAC 9
rhHDAC 9, sequence (Q9UKV0 whole entry, canonical isoform): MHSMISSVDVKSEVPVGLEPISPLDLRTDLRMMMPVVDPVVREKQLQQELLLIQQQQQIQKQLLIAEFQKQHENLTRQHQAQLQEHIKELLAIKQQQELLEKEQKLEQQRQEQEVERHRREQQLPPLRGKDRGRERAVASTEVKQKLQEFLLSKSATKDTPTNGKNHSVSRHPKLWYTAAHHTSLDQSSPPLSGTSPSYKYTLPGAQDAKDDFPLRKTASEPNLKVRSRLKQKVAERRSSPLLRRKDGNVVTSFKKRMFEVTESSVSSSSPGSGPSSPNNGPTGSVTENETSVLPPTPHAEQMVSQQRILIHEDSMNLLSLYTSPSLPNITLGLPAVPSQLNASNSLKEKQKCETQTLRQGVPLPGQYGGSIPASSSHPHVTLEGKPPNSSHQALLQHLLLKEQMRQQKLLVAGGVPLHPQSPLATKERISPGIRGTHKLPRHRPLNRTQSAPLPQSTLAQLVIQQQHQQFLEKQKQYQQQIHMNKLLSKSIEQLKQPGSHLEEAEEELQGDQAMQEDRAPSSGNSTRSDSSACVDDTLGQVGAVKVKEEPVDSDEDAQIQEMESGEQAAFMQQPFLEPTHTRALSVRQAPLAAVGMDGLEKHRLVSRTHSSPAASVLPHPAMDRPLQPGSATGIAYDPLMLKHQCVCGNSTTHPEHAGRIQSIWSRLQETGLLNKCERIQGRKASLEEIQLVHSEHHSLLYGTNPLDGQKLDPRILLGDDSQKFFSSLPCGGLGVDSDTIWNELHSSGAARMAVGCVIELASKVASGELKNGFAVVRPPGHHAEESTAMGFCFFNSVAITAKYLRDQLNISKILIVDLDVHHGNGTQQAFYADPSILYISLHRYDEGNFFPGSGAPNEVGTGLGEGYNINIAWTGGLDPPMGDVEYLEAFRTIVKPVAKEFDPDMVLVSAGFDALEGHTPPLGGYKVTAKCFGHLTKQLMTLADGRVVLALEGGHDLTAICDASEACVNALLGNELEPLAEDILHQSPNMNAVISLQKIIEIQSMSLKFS
Text: as §1

rhHDAC 1 = rhHDAC 1 (Homo sapiens, UniProt Q13547); test: Inhibition of recombinant human HDAC isoforms; assay type: biochemical; details: mean ± SD, triplicate per plate, min two plates; read-out: ED50 rhHDAC 1
rhHDAC 1, sequence (Q13547 whole entry, canonical isoform): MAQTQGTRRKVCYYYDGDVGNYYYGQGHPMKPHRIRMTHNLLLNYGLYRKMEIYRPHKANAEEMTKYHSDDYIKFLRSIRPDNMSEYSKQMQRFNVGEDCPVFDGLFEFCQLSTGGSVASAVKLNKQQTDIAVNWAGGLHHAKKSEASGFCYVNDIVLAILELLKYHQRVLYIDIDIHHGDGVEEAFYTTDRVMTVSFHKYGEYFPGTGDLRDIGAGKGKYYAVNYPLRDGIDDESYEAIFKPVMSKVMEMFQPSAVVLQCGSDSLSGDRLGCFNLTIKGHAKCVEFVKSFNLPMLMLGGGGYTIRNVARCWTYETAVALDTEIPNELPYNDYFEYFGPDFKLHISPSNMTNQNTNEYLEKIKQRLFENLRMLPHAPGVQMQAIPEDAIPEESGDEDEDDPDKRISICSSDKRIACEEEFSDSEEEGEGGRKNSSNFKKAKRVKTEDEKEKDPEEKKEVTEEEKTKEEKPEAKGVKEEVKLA
Text: as §1

rhHDAC 4 = rhHDAC 4 (Homo sapiens, UniProt P56524); test: Inhibition of recombinant human HDAC isoforms; assay type: biochemical; details: mean ± SD, triplicate per plate, min two plates; read-out: ED50 rhHDAC 4
rhHDAC 4, sequence (P56524 whole entry, canonical isoform): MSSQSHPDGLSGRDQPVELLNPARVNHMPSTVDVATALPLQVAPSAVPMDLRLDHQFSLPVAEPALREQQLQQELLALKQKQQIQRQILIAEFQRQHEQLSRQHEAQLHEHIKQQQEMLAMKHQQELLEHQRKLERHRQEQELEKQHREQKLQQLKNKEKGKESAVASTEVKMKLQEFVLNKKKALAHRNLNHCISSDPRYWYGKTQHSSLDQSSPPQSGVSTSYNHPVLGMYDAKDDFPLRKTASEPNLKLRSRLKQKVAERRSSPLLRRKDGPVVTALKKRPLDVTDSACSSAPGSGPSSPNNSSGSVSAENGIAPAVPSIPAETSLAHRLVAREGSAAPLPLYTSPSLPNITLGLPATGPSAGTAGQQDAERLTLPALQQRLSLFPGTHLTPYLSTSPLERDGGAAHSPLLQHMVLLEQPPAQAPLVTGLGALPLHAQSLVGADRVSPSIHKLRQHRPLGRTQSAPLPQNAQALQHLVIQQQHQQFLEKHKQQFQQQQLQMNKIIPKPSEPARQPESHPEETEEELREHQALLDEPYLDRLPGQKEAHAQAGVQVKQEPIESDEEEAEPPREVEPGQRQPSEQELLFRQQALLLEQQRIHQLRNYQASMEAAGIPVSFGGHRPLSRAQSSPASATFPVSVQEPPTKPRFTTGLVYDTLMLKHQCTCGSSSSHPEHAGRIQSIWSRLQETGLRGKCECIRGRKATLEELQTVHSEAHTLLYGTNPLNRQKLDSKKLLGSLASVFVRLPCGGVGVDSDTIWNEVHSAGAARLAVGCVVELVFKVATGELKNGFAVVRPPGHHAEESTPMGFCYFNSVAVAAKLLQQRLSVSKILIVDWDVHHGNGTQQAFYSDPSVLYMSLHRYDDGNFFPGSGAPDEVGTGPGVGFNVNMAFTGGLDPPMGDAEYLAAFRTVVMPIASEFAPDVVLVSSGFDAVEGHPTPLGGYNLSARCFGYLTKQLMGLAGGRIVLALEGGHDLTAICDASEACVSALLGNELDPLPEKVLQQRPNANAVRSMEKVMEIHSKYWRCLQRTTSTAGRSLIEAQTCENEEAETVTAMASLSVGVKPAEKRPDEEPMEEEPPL
Text: as §1

Row | SMILES | IC50 (Trypanosoma brucei (BSF)) [nM] | IC90 (Trypanosoma brucei (BSF)) [nM] | IC50 (HDAC (FDL_HELA)) [nM] | other results
1 | O=C(/C=C/c1cccc(S(=O)(=O)N2CCN(c3ccccc3)CC2)c1)NO [Compound 11] | 167 ± 12 | 228 ± 2 | 132 ± 103 | 
2 | O=C(/C=C/c1ccc2c(c1)OCO2)NCCCCCC(=O)NO [Compound 21] | > 10000 |  | 29 ± 16 | 
3 | O=C(/C=C/c1cccc(S(=O)(=O)N2CCN(c3ccc(Cl)cc3)CC2)c1)NO [Compound 2] | 64 ± 5 | 130 ± 5 | 149 ± 6 | 
4 | O=C(/C=C/c1cccc(S(=O)(=O)N2CCN(c3ccccn3)CC2)c1)NO [Compound 3] | 86 ± 9 | 201 ± 5 | 123 ± 76 | IC50 (rhHDAC 2): 55 ± 6 nM; IC50 (rhHDAC 3): 2.8 ± 0.4 nM; IC50 (rhHDAC 6): 179 ± 115 nM; IC50 (rhHDAC 7): 100 ± 97 nM; IC50 (rhHDAC 8): 581 ± 334 nM; IC50 (rhHDAC 9): 86 ± 61 nM
5 | O=C(/C=C/c1cccc(S(=O)(=O)N2CCN(c3ncccn3)CC2)c1)NO [Compound 1] | 34 ± 2 | 66 ± 4 | 84 ± 53 | 
6 | O=C(/C=C/c1cccc(S(=O)(=O)Nc2ccc(OC(F)F)cc2)c1)NO [Compound 8] | 154 ± 13 | 306 ± 61 | 10 ± 2 | 
7 | CC(/C=C/c1ccccc1)=C\C(=O)NCCCCCC(=O)NO [Compound 23] | > 10000 |  |  | 
8 | COc1ccc(NS(=O)(=O)c2cccc(/C=C/C(=O)NO)c2)cc1 [Compound 18] | 606 ± 81 | 956 ± 35 | 13 ± 5 | IC50 (rhHDAC 1): 19 ± 1 nM; IC50 (rhHDAC 2): 105 ± 64 nM; IC50 (rhHDAC 3): 23 ± 2 nM; IC50 (rhHDAC 4): 33 ± 1 nM; IC50 (rhHDAC 6): 36 ± 3 nM; IC50 (rhHDAC 7): 42 ± 22 nM; IC50 (rhHDAC 8): 167 ± 72 nM; IC50 (rhHDAC 9): 26 ± 3 nM
9 | O=C(/C=C/c1cccc(S(=O)(=O)N2CCN(c3ccccc3F)CC2)c1)NO [Compound 6] | 141 ± 9 | 224 ± 14 | 191 ± 36 | 
10 | O=C(/C=C/c1ccccc1)NCCCCCC(=O)NO [Compound 22] | > 10000 |  | 20 ± 2 | 
11 | O=C(/C=C/c1cccc(S(=O)(=O)N2CCN(c3ccccc3Cl)CC2)c1)NO [Compound 7] | 154 ± 13 | 281 ± 19 | 68 ± 36 | 
12 | O=C(/C=C/c1cccc(S(=O)(=O)Nc2ccc(Cl)cc2)c1)NO [Compound 17] | 368 ± 23 | 651 ± 83 | 42 ± 11 | 
